Assays:
SARS-CoV-2 = experiment: microbe, parasite or virus in culture; assay type: cell-based; conditions: Severe acute respiratory syndrome coronavirus 2, Vero; read-out: EC50 virus entry blocking
[1] = system: SARS-CoV-2 specific nucleocapsid; experiment: Western blot analysis of nucleocapsid level in Vero cells; assay type: cell-based
[2] = In vivo plasma pharmacokinetics in mice; conditions: for MRT last: read-out: MRT0-t; for MRT inf: read-out: MRT0-∞
Protocol: (§1) After dosage, blood samples were collected into heparinized tubes at 2, 5, 15, 30, 60, 120, 240, 360, 540, and 720 min for the i.v. group, and at 5, 15, 30, 60, 90, 120, 240, 360, 540, 720 and 1440 min for the i.g. group. Plasma (100 μL) was isolated from the blood sample by centrifuging at 4 °C and 6000 rpm for 3 min and then stored at − 80 °C until analysis. An aliquot of 100 μL of each plasma sample was mixed with 20 μL of internal standard working solution (200 ng/mL of caffeine). Methanol (400 μL) was then added for precipitation. After vortexing for 5 min and centrifuging at 14000 rpm for 10 min, 5 μL of the supernatant was injected for LC-MS/MS analysis.
(§2) The PK parameters were analyzed through the noncompartment model using WinNonlin 6.1 software (Pharsight Corporation, Mountain View, USA), including half-life (T1/2), the peak of the plasma concentration (Cmax), the time to peak of the plasma concentration (Tmax), the area under the plasma concentration-time curve during the period of observation (AUC0-t), the area under the plasma concentration-time curve from zero to infinity (AUC0-∞), clearance (CL), apparent volume of distribution (Vd), and the mean residence time.

[3] = In vivo plasma pharmacokinetics in beagle dogs; conditions: Dog; for MRT last: read-out: MRT0-t; for MRT inf: read-out: MRT0-∞
Protocol: as §1, §2

in vivo [4] = conditions: Sprague-Dawley, rat, lung, po
in vivo [5] = conditions: mouse, iv, 1 mg/kg, I.V. 1 mg/kg; for AUC(0-inf): AUC0-∞; for AUC(0-inf) / AUC(0-t) / Cmax / MRT last / MRT inf / Tmax: mice; for AUC(0-t): AUC0-t; for MRT last: MRT0-t; for MRT inf: MRT0-∞; for half-life: T1/2, mice
[6] = Lung distribution in mice after oral administration

CC[C@H]1CN2CCc3cc(OC)c(OC)cc3[C@@H]2C[C@@H]1C[C@H]1NCCc2cc(OC)c(OC)cc21 [Emetine]
EC50 (SARS-CoV-2): 19 nM | SARS-CoV-2 specific nucleocapsid level, anti-replication effect ([1]; Vero cells infected […], then drug 24 h): dose-dependently decreased | SARS-CoV-2 specific nucleocapsid level, anti-entry effect ([1]; Vero cells pretreated with drug […], virus […], 24 h): confirmed this trend | AUMC0-t ([2]; I.V. 1 mg/kg): 616 ± 181 hr*hr.*ng/mL | AUMC0-∞ ([2]; I.V. 1 mg/kg): 3472 ± 1149 hr*hr.*ng/mL | AUMC0-t ([2]; P.O. 10 mg/kg): 8355 ± 2710 hr*hr.*ng/mL | AUMC0-∞ ([2]; P.O. 10 mg/kg): 36,666 ± 31,176 hr*hr.*ng/mL | Cl ([2]; P.O. 10 mg/kg): 143.5 ± 64.88 mL/min/kg | Vz ([2]; P.O. 10 mg/kg): 174,470 ± 45,790 mL/kg | AUC(0-inf) ([2]; male, mouse, iv, I.V. 1 mg/kg): 258 ± 71 ng·h/mL | AUC(0-t) ([2]; male, mouse, iv, I.V. 1 mg/kg): 120 ± 26 ng·h/mL | C0 ([2]; male, mouse, iv, I.V. 1 mg/kg): 172 ± 86 ng/mL | Cmax ([2]; male, mouse, iv, I.V. 1 mg/kg): 111 ± 13.5 ng/mL | Tmax ([2]; male, mouse, iv, I.V. 1 mg/kg): 0.03 h | clearance ([2]; male, mouse, iv, I.V. 1 mg/kg): 68.6 mL/min/kg | half-life ([2]; male, mouse, iv, I.V. 1 mg/kg): 6.24 ± 1.17 h | MRT last ([2]; male, mouse, iv, I.V. 1 mg/kg): 5.06 ± 0.57 h | MRT inf ([2]; male, mouse, iv, I.V. 1 mg/kg): 13.4 ± 1.37 h | Vd ([2]; male, mouse, iv, I.V. 1 mg/kg, read-out: Vz): 38.4 L/kg | AUC(0-inf) ([2]; male, mouse, po, P.O. 10 mg/kg): 1340 ± 625 ng·h/mL | AUC(0-t) ([2]; male, mouse, po, P.O. 10 mg/kg): 811 ± 208 ng·h/mL | Cmax ([2]; male, mouse, po, P.O. 10 mg/kg): 61.6 ± 15.1 ng/mL | Tmax ([2]; male, mouse, po, P.O. 10 mg/kg): 1.67 ± 0.58 h | half-life ([2]; male, mouse, po, P.O. 10 mg/kg): 15.9 ± 8.22 h | bioavailability ([2]; male, mouse, po, P.O. 10 mg/kg vs I.V. 1 mg/kg, read-out: F (oral bioavailability)): 52.1 ± 24.2% | MRT last ([2]; male, mouse, po, P.O. 10 mg/kg): 10.2 ± 1.31 h | MRT inf ([2]; male, mouse, po, P.O. 10 mg/kg): 24.3 ± 10 h | AUMC0-t ([3]; I.V. 1 mg/kg): 1331 ± 695 hr*hr.*ng/mL | AUMC0-∞ ([3]; I.V. 1 mg/kg): 1626 ± 679 hr*hr.*ng/mL | AUMC0-t ([3]; P.O. 5 mg/kg): 12,464 ± 9313 hr*hr.*ng/mL | AUMC0-∞ ([3]; P.O. 5 mg/kg): 19,162 ± 13,435 hr*hr.*ng/mL | Cl ([3]; P.O. 5 mg/kg): 72.95 ± 62.47 mL/min/kg | Vz ([3]; P.O. 5 mg/kg): 51,033 ± 45,021 mL/kg | AUC(0-inf) ([3]; beagle, iv, I.V. 1 mg/kg): 468 ± 298 ng·h/mL | AUC(0-t) ([3]; beagle, iv, I.V. 1 mg/kg): 449 ± 298 ng·h/mL | C0 ([3]; beagle, iv, I.V. 1 mg/kg): 351 ± 44 ng/mL | Cmax ([3]; beagle, iv, I.V. 1 mg/kg): 260 ± 66.7 ng/mL | Tmax ([3]; beagle, iv, I.V. 1 mg/kg): 0.03 h | clearance ([3]; beagle, iv, I.V. 1 mg/kg): 45.8 mL/min/kg | half-life ([3]; beagle, iv, I.V. 1 mg/kg): 2.45 ± 0.91 h | MRT last ([3]; beagle, iv, I.V. 1 mg/kg): 3.2 ± 0.78 h | MRT inf ([3]; beagle, iv, I.V. 1 mg/kg): 3.82 ± 0.86 h | Vd ([3]; beagle, iv, I.V. 1 mg/kg, read-out: Vz): 9.55 ± 5.26 L/kg | AUC(0-inf) ([3]; beagle, po, P.O. 5 mg/kg): 1740 ± 1080 ng·h/mL | AUC(0-t) ([3]; beagle, po, P.O. 5 mg/kg): 1550 ± 964 ng·h/mL | Cmax ([3]; beagle, po, P.O. 5 mg/kg): 245 ± 164 ng/mL | Tmax ([3]; beagle, po, P.O. 5 mg/kg): 0.25 h | half-life ([3]; beagle, po, P.O. 5 mg/kg): 7.99 ± 0.35 h | bioavailability ([3]; beagle, po, P.O. 5 mg/kg vs I.V. 1 mg/kg, read-out: F (oral bioavailability)): 74.2 ± 46.2% | MRT last ([3]; beagle, po, P.O. 5 mg/kg): 7.63 ± 1.32 h | MRT inf ([3]; beagle, po, P.O. 5 mg/kg): 10.7 ± 1.21 h | Tmax (in vivo [4]; 1 mg/kg): 12 h | concentration at 12 h (in vivo [4]; 1 mg/kg): 1.61 µM | concentration at 72 h (in vivo [4]; 1 mg/kg): 0.36 µM | concentration at 1 h (in vivo [4]; 1 mg/kg/day): 5 to 6 µM | concentration at 72 h (in vivo [4]; 1 mg/kg/day): 4.89 µM | AUC(0-inf) (in vivo [5]; male, Kidney): 99100 ng·h/mL | AUC(0-inf) (in vivo [5]; male, Lung): 65400 ng·h/mL | AUC(0-t) (in vivo [5]; Kidney): 37000 ng·h/mL | AUC(0-t) (in vivo [5]; Liver): 41300 ng·h/mL | AUC(0-t) (in vivo [5]; Lung): 35400 ng·h/mL | AUC(0-inf) (in vivo [5]; Liver): 139000 ng·h/mL | Cmax (in vivo [5]; Kidney): 4550 ng/mL | Cmax (in vivo [5]; Liver): 4420 ng/mL | Cmax (in vivo [5]; Lung): 8580 ng/mL | MRT last (in vivo [5]; Kidney): 5.23 h | MRT last (in vivo [5]; Liver): 6.67 h | MRT last (in vivo [5]; Lung): 5.13 h | MRT inf (in vivo [5]; Kidney): 28.4 h | MRT inf (in vivo [5]; Liver): 28 h | MRT inf (in vivo [5]; Lung): 15.9 h | half-life (in vivo [5]; Kidney): 20.9 h | half-life (in vivo [5]; Liver): 17.3 h | half-life (in vivo [5]; Lung): 11.5 h | Tmax (in vivo [5]; Kidney): 0.5 h | Tmax (in vivo [5]; Liver): 9 h | Tmax (in vivo [5]; Lung): 0.03 h | Mice lung con. ([6]; 1 mg/kg (P.O.) single dose, 1 h): 0.23 ± 0.04 ng/mL | Mice lung con. ([6]; 1 mg/kg (P.O.) single dose, 2 h): 0.50 ± 0.35 ng/mL | Mice lung con. ([6]; 1 mg/kg (P.O.) single dose, 4 h): 0.81 ± 0.16 ng/mL | Mice lung con. ([6]; 1 mg/kg (P.O.) single dose, 6 h): 1.06 ± 0.09 ng/mL | Mice lung con. ([6]; 1 mg/kg (P.O.) single dose, 9 h): 1.75 ± 0.28 ng/mL | Mice lung con. ([6]; 1 mg/kg (P.O.) single dose, 24 h): 1.13 ± 0.18 ng/mL | Mice lung con. ([6]; 1 mg/kg (P.O.) single dose, 48 h): 0.61 ± 0.09 ng/mL | Mice lung con. ([6]; 1 mg/kg (P.O.) single dose, 72 h): 0.23 ± 0.06 ng/mL | Mice lung con. ([6]; 1 mg/kg (Q.D.× 3 days, P.O.), 1 h): 6.17 ± 1.54 ng/mL | Mice lung con. ([6]; 1 mg/kg (Q.D.× 3 days, P.O.), 2 h): 6.44 ± 0.96 ng/mL | Mice lung con. ([6]; 1 mg/kg (Q.D.× 3 days, P.O.), 4 h): 6.73 ± 0.40 ng/mL | Mice lung con. ([6]; 1 mg/kg (Q.D.× 3 days, P.O.), 6 h): 7.14 ± 2.10 ng/mL | Mice lung con. ([6]; 1 mg/kg (Q.D.× 3 days, P.O.), 9 h): 7.46 ± 0.89 ng/mL | Mice lung con. ([6]; 1 mg/kg (Q.D.× 3 days, P.O.), 12 h): 7.26 ± 0.93 ng/mL | Mice lung con. ([6]; 1 mg/kg (Q.D.× 3 days, P.O.), 24 h): 4.61 ± 0.84 ng/mL | Mice lung con. ([6]; 1 mg/kg (Q.D.× 3 days, P.O.), 72 h): 2.17 ± 0.42 ng/mL | retention time in lung tissue ([6]; in vivo animal PK study, species not named at the place): over 12 h | time of maximum lung concentration ([6]; mice, 1 mg/kg single oral dose): 12 h | time of maximum lung concentration (Cmax) ([6]; mice, 1 mg/kg/day oral 3 days): 9 h

Reference: article PMC7700809 (Molecular Biomedicine, 2020)
